Laboratory results reported in patent US7074798B2, “Xanthine derivative and DPPIV inhibitor” (Eisai Co., Ltd, priority 2002, dated 2006).
Where a name gives a salt, the structure may show the parent alone.

Legend:
male C57BL/6N mouse = assay: Effect on glucose tolerance of normal mouse (oral glucose loading); format: in vivo; settings: 2 h, 30 min before glucose 2 g/kg, AUC0-120, 0.5% MC = 100%, NVP DPP728 10 mg/kg = 0%, lower = better, read-out: Improvement degree of glucose tolerance; for response vs control in vivo at 3 mg/kg: 3 mg/kg oral
Method: Effect on Glucose Tolerance of Normal Mouse
male C57BL/6N mouse (purchased from CHARLES RIVER JAPAN, INC.)
A suspension of the test compound and NVP DPP728 or 0.5% MC solution (solvent control group) were orally administered at a dose of 10 mL/kg, and after 30 minutes, glucose solution was orally administered at a dose of 10 mL/kg. Glucose was orally administered at a dose of 2 g/kg.
Immediately before the administration of the test substance and NVP DPP728, immediately before the administration of the glucose solution and at 30 minutes, 60 minutes, and 120 minutes after the administration, a tail vein of the mouse was injured to slightly bleed by a razor under no anesthesia. 10 μl of blood was collected and was immediately mixed with 0.6M perchloric acid (140 μl). Glucose in the supernatant obtained by centrifugation (1500 g, 10 minutes, 4° C., refrigerated centrifuge GS-6KR, Beckman Instruments, Inc.) was measured using Glucose CII-Test Wako (Wako Pure Chemical Industries, Ltd.).
Area under the curve of blood glucose level-time (AUC0-120; Area Under the Curve) from the time of administration of glucose to 120 minutes after administration was calculated for respective administration groups, i.e., 0.5% MC solution, NVP DPP728, and the test compounds. Taking the AUC0-120 of the 0.5% MC solution administration group as 100% and the AUC0-120 of NVP DPP728 (10 mg/kg) administration group as 0%, the improvement degree of the glucose tolerance of a test compound was calculated using the following formula: Improvement degree of the glucose tolerance (%)=(AUC0-120 of the test compound−AUC0-120 of the NVP DPP728 (10 mg/kg) administration group)/(AUC0-120 of the 0.5% MC solution administration group−AUC0-120 of the NVP DPP728 (10 mg/kg) administration group)×100. • The lower the % value, the greater the improvement degree of the glucose tolerance will be.

[1] = molecular target: T1, DPP-IV obtained from swine kidney (Sus scrofa, UniProt P22411); assay: Determination of the inhibition action of DPPIV; format: biochemical; settings: Gly-Pro-p-nitroanilide 0.33 mM, absorbance 405 nm
T1 construct: DPP-IV obtained from swine kidney; from tissue; host or cells: swine kidney
Method: DPP-IV obtained from swine kidney was dissolved in reaction buffer (50 mM Tris-HCl pH 7.4, 0.1% BSA) at a concentration of 10 mU/mL, and 110 μl of the solution was added. Then, medicament (15 μl) was added thereto, and the mixture was incubated at room temperature for 20 minutes. Gly-Pro-p-nitroanilide (25 μl, final concentration: 0.33 mM) dissolved to 2 mM was added to the mixture to start enzymatic reaction. The reaction time was 20 minutes, and 1N phosphoric acid solution (25 μl) was added to the mixture to quench the reaction.

T1 sequence (P22411 whole entry): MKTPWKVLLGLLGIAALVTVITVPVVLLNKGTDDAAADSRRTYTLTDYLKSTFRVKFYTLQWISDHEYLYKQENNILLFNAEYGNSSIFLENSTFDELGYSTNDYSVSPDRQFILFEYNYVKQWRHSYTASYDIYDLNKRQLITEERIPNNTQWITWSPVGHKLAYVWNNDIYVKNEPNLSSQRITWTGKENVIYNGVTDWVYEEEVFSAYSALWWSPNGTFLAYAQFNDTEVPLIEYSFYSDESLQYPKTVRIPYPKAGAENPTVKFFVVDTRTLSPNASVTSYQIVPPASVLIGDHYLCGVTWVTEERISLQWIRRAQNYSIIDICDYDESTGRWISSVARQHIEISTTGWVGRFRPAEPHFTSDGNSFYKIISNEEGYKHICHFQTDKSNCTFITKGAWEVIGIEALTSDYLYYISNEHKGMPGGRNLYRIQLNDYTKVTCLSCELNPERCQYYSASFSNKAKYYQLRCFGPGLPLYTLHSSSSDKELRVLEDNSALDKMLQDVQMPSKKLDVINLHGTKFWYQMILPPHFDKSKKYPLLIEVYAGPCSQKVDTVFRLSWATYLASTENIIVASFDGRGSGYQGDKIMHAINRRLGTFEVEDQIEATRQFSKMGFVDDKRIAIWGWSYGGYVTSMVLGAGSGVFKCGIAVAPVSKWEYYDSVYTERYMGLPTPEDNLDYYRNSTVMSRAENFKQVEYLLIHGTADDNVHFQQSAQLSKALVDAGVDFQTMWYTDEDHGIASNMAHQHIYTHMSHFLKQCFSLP

**Q.** Which response vs control in vivo at 3 mg/kg (male C57BL/6N mouse) does the source give for `Cn1c(=O)n(CCc2ccccc2)c(=O)c2c1nc(N1CCCNCC1)n2Cc1ccccc1` [Control compound 1, reference compound] here?
**A.** Its response vs control in vivo at 3 mg/kg is 49.2%.

**Q.** What about the IC50 [1] of the same molecule?
**A.** The IC50 was 24.1 nM.

**Q.** `CC#CCn1c(N2CCNCC2)nc2c1c(=O)n(CC#N)c(=O)n2C` [Example 21, [7-(2-Butynyl)-3-methyl-2,6-dioxo-8-(piperazin-1-yl)-2,3,6,7-tetrahydropurin-1-yl]acetonitrile trifluoroacetate] was tested. Which response vs control in vivo at 3 mg/kg (male C57BL/6N mouse) did it give?
**A.** Its response vs control in vivo at 3 mg/kg is 4.8%.

**Q.** `CC#CCn1c(N2CCNCC2)nc2c1c(=O)n(CC(=O)c1ccccc1)c(=O)n2C` [Example 30, 7-(2-Butynyl)-3-methyl-1-(2-oxo-2-phenylethyl)-8-(piperazin-1-yl)-3,7-dihydropurine-2,6-dione trifluoroacetate] was tested. Which response vs control in vivo at 0.3 mg/kg (male C57BL/6N mouse; 0.3 mg/kg oral) did it give?
**A.** The response vs control in vivo at 0.3 mg/kg was 49.4%.

**Q.** And the response vs control in vivo at 1 mg/kg (male C57BL/6N mouse; 1 mg/kg oral)?
**A.** Its response vs control in vivo at 1 mg/kg is -14.3%.

**Q.** Which response vs control in vivo at 3 mg/kg (male C57BL/6N mouse) does the source give for `CC#CCn1c(N2CCNCC2)nc2c1c(=O)n(C)c(=O)n2CC(=O)C(C)(C)C` [Example 274, 7-(2-Butynyl)-3-(3,3-dimethyl-2-oxobutyl)-1-methyl-8-(piperazin-1-yl)-3,7-dihydropurine-2,6-dione trifluoroacetate] here?
**A.** The response vs control in vivo at 3 mg/kg was 1.9%.

**Q.** Which response vs control in vivo at 3 mg/kg (male C57BL/6N mouse) does the source give for `C=Cc1ccccc1-n1c(N2CCNCC2)nc2c1c(=O)n(C)c(=O)n2C` [Example 147, 7-(2-Vinylphenyl)-1,3-dimethyl-8-(piperazin-1-yl)-3,7-dihydropurine-2,6-dione trifluoroacetate] here?
**A.** Its response vs control in vivo at 3 mg/kg is 13%.

**Q.** How did the response vs control in vivo at 3 mg/kg (male C57BL/6N mouse) turn out when `CC#CCn1c(N2CCNCC2)nc2c1c(=O)n(C)c(=O)n2Cc1ccccc1` [Example 218, 7-(2-Butynyl)-3-benzyl-1-methyl-8-(piperazin-1-yl)-3,7-dihydropurine-2,6-dione trifluoroacetate] was run?
**A.** Its response vs control in vivo at 3 mg/kg is 16.8%.

**Q.** How did the response vs control in vivo at 3 mg/kg (male C57BL/6N mouse) turn out when `CC#CCn1c(N2CCNCC2)nc2c1c(=O)n(C)c(=O)n2CC(=O)c1ccccc1` [Example 256, 7-(2-Butynyl)-3-(2-oxo-2-phenethyl)-1-methyl-8-(piperazin-1-yl)-3,7-dihydropurine-2,6-dione trifluoroacetate] was run?
**A.** The response vs control in vivo at 3 mg/kg was 2.4%.
